# Experiments:
# human plasma = test: Activated partial thromboplastin time (APTT) test, human plasma; type: biochemical; settings: for anticoagulant activity (in words): APTT test; for Increase in Coagulation Time: increase in coagulation time (seconds) from a 1 μg/ml increase in concentration, linear regression, pooled plasma from 90 donors; for Relative Increase in Coagulation Time: Human plasma, vs untreated control; for Coagulation Time: PI-88 8.6 μg/ml
# Description: Heparin (anticoagulant activity 120 U/mg) is included for comparison. Data obtained with pooled plasma from 90 donors, the coagulation time of the plasma being 30.8 seconds in the absence of inhibitors. Results representative of four separate experiments. Table 1 summarises the anticoagulant activity of 19 sulfated oligosaccharides, as measured by the activated partial thromboplastin time (APTT) test. Similar results were obtained with the thrombin time test. […] Chain length, monosaccharide makeup and linkage, all appear to be critical factors. […] Furthermore, a striking feature of the maltose series is that chain elongation y a single residue from the maltotetraose to maltopentaose results in a 19-fold increase in anticoagulant activity. […] The glucose series of oligosaccharides emphasizes the importance of monosaccharide linkage on activity. […] There are additional, more subtle, effects of monosaccharide linkage on anticoagulant activity. […] Values | obtained from a linear regression analysis of the coagulation data. |^a Coagulation times estimated using the APTT test. Similar results | were obtained in duplicate assays. Concentrations of heparin and | mannopentaose phosphate SO4 (PI-88) were used which prolonged the |^a Coagulation times estimated by the APTT test. Data expressed as fold | increase in coagulation time induced by the anticoagulant compared with | untreated control.
# marmoset plasma = test: APTT test, marmoset plasma; type: biochemical; settings: for Relative Increase in Coagulation Time: APTT, Marmoset plasma, vs untreated control
# Description: (§1) Some additional biological properties of one of the sulfated oligosaccharides, PI-88, were defined. […] Protamine is frequently used clinically to reverse the anticoagulant effects of heparin and Fragmin. […] Finally, PI-88 was examined for its ability to act as an anticoagulant in a range of mammalian species. […] Thus, sulfated oligosaccharides potentially can be used as anticoagulants/antithrombotics not only in humans but in a wide range of mammalian species.
# (§2) ^a Coagulation times estimated by the APTT test. Data expressed as fold
# (§3) increase in coagulation time induced by the anticoagulant compared with […]
# sheep plasma = test: APTT test, sheep plasma; type: biochemical; settings: for Relative Increase in Coagulation Time: APTT, Sheep plasma, vs untreated control
# Description: as §1, §2, §3
# rabbit plasma = test: APTT test, rabbit plasma; type: biochemical; settings: for Relative Increase in Coagulation Time: APTT, Rabbit plasma, vs untreated control
# Description: as §1, §2, §3
# dog plasma = test: APTT test, dog plasma; type: biochemical; settings: for Relative Increase in Coagulation Time: APTT, Dog plasma, vs untreated control
# Description: as §1, §2, §3
# rat plasma = test: APTT test, rat plasma; type: biochemical; settings: for Relative Increase in Coagulation Time: APTT, Rat plasma, vs untreated control
# Description: as §1, §2, §3
# mouse plasma = test: APTT test, mouse plasma; type: biochemical; settings: for Relative Increase in Coagulation Time: APTT, Mouse plasma, vs untreated control
# Description: as §1, §2, §3
# Human platelet = test: Collagen- or ADP-induced platelet aggregation (platelet aggregometer); type: cell-based; settings: for Relative Rate of Platelet Aggregation, ADP-induced Aggregation: ADP 10 μM, control without PI-88 81 ± 1; for Relative Rate of Platelet Aggregation, ADP-induced Aggregation / Relative Rate of Platelet Aggregation, Collagen-induced Aggregation: ± SD; for Relative Rate of Platelet Aggregation, Collagen-induced Aggregation: collagen 9 μg/ml, control without PI-88 114 ± 8
# Protocol: ^a Human platelet aggregation induced by either collagen (9 μg/ml)
# or ADP (10 μM) and relative rates of platelet aggregation estimated, in
# the presence or absence of PI-88, using a platelet aggregometer. Data ±
# SD representative of two platelet donors.
# thrombin = test: Anti-thrombin III mediated anti-thrombin activity, chromogenic assays; type: biochemical
# Description: (§4) The manner by which the sulfated oligosaccharides inhibit the coagulation cascade was then investigated.
# factor Xa = test: Anti-thrombin III mediated anti-factor Xa activity, chromogenic (Helena) anti-Xa assay; type: biochemical; settings: FIG. 3
# Protocol: Factor Xa activity was determined with the chromogenic (Helena) anti-Xa assay run on a Roche COBAS Fara biochemistry analyser.
# as §4
# heparin cofactor II = test: Plasma free system: purified heparin cofactor II, thrombin and chromogenic thrombin substrate; type: biochemical; settings: data not shown
# Description: as §4
# [1] = Inactivation of anticoagulant activity by protamine; type: biochemical
# Description: as §1
compound,measurement,setting,value
Maltohexaose SO4,anticoagulant activity (in words),human plasma,quite effective anticoagulants
same,Increase in Coagulation Time,human plasma; APTT,5.85 s/µg
Maltoheptaose SO4,anticoagulant activity (in words),human plasma,quite effective anticoagulants
same,Increase in Coagulation Time,human plasma; APTT,5.9 s/µg
Maltopentaose SO4,anticoagulant activity (in words),human plasma,quite effective anticoagulants
same,Increase in Coagulation Time,human plasma; APTT,5.25 s/µg
same,increase in anticoagulant activity on chain elongation from maltotetraose to maltopentaose,"human plasma; APTT, relative to the maltotetraose sulfate",19 fold
Isomaltohexaose SO4,Increase in Coagulation Time,human plasma; APTT,6.56 s/µg
Cellotetraose SO4,anticoagulant activity (in words),human plasma,reasonably potent anticoagulant
same,Increase in Coagulation Time,human plasma; APTT,4.2 s/µg
Mannopentaose phosphate SO2 (PI-88),Increase in Coagulation Time,human plasma; APTT,5.67 s/µg
Laminariheptaose SO4,Increase in Coagulation Time,human plasma; APTT,0.5 s/µg
Laminarihexaose SO4,Increase in Coagulation Time,human plasma; APTT,0.9 s/µg
Mannopentaose phosphate SO4 (PI-88),Increase in Coagulation Time,human plasma; APTT,5.04 s/µg
Maltoetraose SO4,Increase in Coagulation Time,human plasma; APTT,0.28 s/µg
Mannopentaose SO4,Increase in Coagulation Time,human plasma; APTT,5.32 s/µg
O=S(=O)(O)OC[C@H]1O[C@@](COS(=O)(=O)O)(O[C@H]2O[C@H](COS(=O)(=O)O)[C@@H](OS(=O)(=O)O)[C@H](OS(=O)(=O)O)[C@H]2OS(=O)(=O)O)[C@@H](OS(=O)(=O)O)[C@@H]1OS(=O)(=O)O [Sucrose SO4],Increase in Coagulation Time,human plasma; APTT,0.39 s/µg
Isomaltopentaose SO4,anticoagulant activity (in words),human plasma,substantially less effective anticoagulant
same,Increase in Coagulation Time,human plasma; APTT,1.85 s/µg
Cellohexaose SO4,Increase in Coagulation Time,human plasma; APTT,4.8 s/µg
Maltotriose SO4,Increase in Coagulation Time,human plasma; APTT,0.25 s/µg
Cellopentaose SO4,Increase in Coagulation Time,human plasma; APTT,3.5 s/µg
Maltose SO4,Increase in Coagulation Time,human plasma; APTT,0.31 s/µg
Chitosan hexamer SO4,anticoagulant activity (in words),human plasma,negligible anticoagulant activity
same,Increase in Coagulation Time,human plasma; APTT,0.4 s/µg
Laminaritetraose SO4,Increase in Coagulation Time,human plasma; APTT,2.9 s/µg
mannopentaose phosphate sulfate [PI-88],Relative Increase in Coagulation Time,"human plasma; APTT, PI-88 2.24 μg/ml",1.42 fold
same,Relative Increase in Coagulation Time,"human plasma; APTT, PI-88 22.4 μg/ml",4.65 fold
same,Coagulation Time,"human plasma; APTT, Mean ± SD of 20 normal donors",88.3 ± 11.9 s
same,Coagulation Time,"human plasma; APTT, Normal Donor 1",77.3 s
same,Coagulation Time,"human plasma; APTT, Normal Donor 2",89.6 s
same,Coagulation Time,"human plasma; APTT, Normal Donor 3",94.0 s
same,Coagulation Time,"human plasma; APTT, Normal Donor 4",85.6 s
same,Coagulation Time,"human plasma; APTT, Normal Donor 5",101.9 s
same,Coagulation Time,"human plasma; APTT, Normal Donor 6",95.0 s
same,Coagulation Time,"human plasma; APTT, Normal Donor 7",115.3 s
same,Coagulation Time,"human plasma; APTT, Normal Donor 8",101.9 s
same,Coagulation Time,"human plasma; APTT, Normal Donor 9",85.2 s
same,Coagulation Time,"human plasma; APTT, Normal Donor 10",78.0 s
same,Coagulation Time,"human plasma; APTT, Normal Donor 11",93.6 s
same,Coagulation Time,"human plasma; APTT, Normal Donor 12",82.9 s
same,Coagulation Time,"human plasma; APTT, Normal Donor 13",85.5 s
same,Coagulation Time,"human plasma; APTT, Normal Donor 14",89.7 s
same,Coagulation Time,"human plasma; APTT, Normal Donor 15",81.2 s
same,Coagulation Time,"human plasma; APTT, Normal Donor 16",72.6 s
same,Coagulation Time,"human plasma; APTT, Normal Donor 17",108.0 s
same,Coagulation Time,"human plasma; APTT, Normal Donor 18",70.4 s
same,Coagulation Time,"human plasma; APTT, Normal Donor 19",93.6 s
same,Coagulation Time,"human plasma; APTT, Normal Donor 20",72.6 s
same,ability to act as an anticoagulant (in words),human plasma; human plasma,effective anticoagulant
same,Relative Increase in Coagulation Time,marmoset plasma; PI-88 2.24 μg/ml,1.40 fold
same,Relative Increase in Coagulation Time,marmoset plasma; PI-88 22.4 μg/ml,2.86 fold
same,ability to act as an anticoagulant (in words),marmoset plasma; marmoset plasma,effective anticoagulant
same,Relative Increase in Coagulation Time,sheep plasma; PI-88 2.24 μg/ml,1.88 fold
same,Relative Increase in Coagulation Time,sheep plasma; PI-88 22.4 μg/ml,> 4.98 fold
same,ability to act as an anticoagulant (in words),sheep plasma; sheep plasma,effective anticoagulant
same,Relative Increase in Coagulation Time,rabbit plasma; PI-88 2.24 μg/ml,1.02 fold
same,Relative Increase in Coagulation Time,rabbit plasma; PI-88 22.4 μg/ml,1.20 fold
same,ability to act as an anticoagulant (in words),rabbit plasma; rabbit plasma,only weakly active
same,Relative Increase in Coagulation Time,dog plasma; PI-88 2.24 μg/ml,1.24 fold
same,Relative Increase in Coagulation Time,dog plasma; PI-88 22.4 μg/ml,2.42 fold
same,ability to act as an anticoagulant (in words),dog plasma; dog plasma,effective anticoagulant
same,Relative Increase in Coagulation Time,rat plasma; PI-88 2.24 μg/ml,1.54 fold
same,Relative Increase in Coagulation Time,rat plasma; PI-88 22.4 μg/ml,> 5.88 fold
same,ability to act as an anticoagulant (in words),rat plasma; rat plasma,effective anticoagulant
same,Relative Increase in Coagulation Time,mouse plasma; PI-88 2.24 μg/ml,1.13 fold
same,Relative Increase in Coagulation Time,mouse plasma; PI-88 22.4 μg/ml,3.03 fold
same,ability to act as an anticoagulant (in words),mouse plasma; mouse plasma,effective anticoagulant
same,inhibition of collagen- and ADP-induced platelet aggregation (in words),Human platelet,very weak inhibitor
same,"Relative Rate of Platelet Aggregation, ADP-induced Aggregation",Human platelet; PI-88 21 μg/ml,74 ± 1
same,"Relative Rate of Platelet Aggregation, ADP-induced Aggregation",Human platelet; PI-88 210 μg/ml,72 ± 1
same,"Relative Rate of Platelet Aggregation, ADP-induced Aggregation",Human platelet; PI-88 2100 μg/ml,56 ± 2
same,"Relative Rate of Platelet Aggregation, Collagen-induced Aggregation",Human platelet; PI-88 21 μg/ml,97 ± 8
same,"Relative Rate of Platelet Aggregation, Collagen-induced Aggregation",Human platelet; PI-88 210 μg/ml,86 ± 10
same,"Relative Rate of Platelet Aggregation, Collagen-induced Aggregation",Human platelet; PI-88 2100 μg/ml,79 ± 0
same,enhancement of the ability of anti-thrombin III to inhibit thrombin (in words),thrombin; initial studies,did not enhance
same,fold less active than heparin in enhancing anti-thrombin III mediated anti-thrombin activity,"thrombin; two different chromogenic assays, data not shown",700-7000 fold
same,"fold less active than heparin or LMW heparin (Fragmin), anti-thrombin III mediated factor Xa inhibitory activity",factor Xa,100-1000 fold
same,enhancement of the ability of heparin cofactor II to inhibit thrombin (in words),heparin cofactor II,as effectively as heparin and dermatan sulfate
same,inactivation of the anticoagulant activity by protamine (in words),[1],effectively inactivate

# From US6271215A, “Sulfated oligosaccharides having anticoagulant/antithrombotic activity” (The Australian National University, priority 1997, dated 2001)
